According to patent US5700679A, “Lipid vesicles having a bilayer containing a surfactant with anti-viral and spermicidal activity” (priority 1996, dated 1997):

Experiments:
[1] = system: spermatozoa (human semen); assay: Sander-Cramer Spermicidal Assay; format: cell-based; settings: highest dilution that immobilizes spermatozoa in less than 20 seconds; NP9 concentration 10 mg/mL in DMSO
Description: In this Example, the preparation of Example 1 was tested for spermicidal activity using the Sander-Cramer spermicidal assay. A series of dilutions of the test compound are prepared using 0.9% saline. 1 mL of test article is mixed with 0.2 mL of human semen in a […] by drawing the mixture into a pipet and forcibly expressing the mixture. This procedure is repeated 6 times. A hanging drop of the mixture is prepared and five fields are observed under low power magnification. The whole process from mixing to microscopic observation must be accomplished in less than 20 seconds. The end point is the highest dilution that immobilizes spermatozoa in less than 20 seconds.

spermatozoa = settings: cited from earlier work

## poly(ethylene glycol) p-nonylphenyl ether [NP9 Control]
[1]
  Highest Spermicidal Dilution: 91

## polyethylene glycol p-isooctylphenyl ether [TRITON-X]
spermatozoa
  spermicidal properties (in words): some spermicidal properties
